Results: US20230082611A1, “COMPOSITIONS AND METHODS FOR THE TREATMENT OF RESPIRATORY SYNCYTIAL VIRUS” (Cidara Therapeutics, Inc., priority 2019, published 2023)

Key:
Type in all cases: cell-based
RSV Long strain = experiment: RSV microneutralization assay, RSV Long strain; details: human respiratory syncytial virus; MOI 0.002, HEp-2 cells, day 6; read-out: RSV Long EC50
Experimental: (§1) Duplicate 10-fold serial dilutions of compound in DMEM with 2% HI-FBS, 1× P/S, 2 mM L-Gln were prepared in 96-well tissue culture plates at 60 μL/well. The RSV Long strain (RetroVirox, San Diego), RSV A2 strain (Virapur, San Diego), RSV B1 strain (RetroVirox, San Diego), or RSV strain CH18537 (RetroVirox, San Diego), were diluted in DMEM with 2% HI-FBS, 1× P/S, 2 mM L-Gln and 60 μL/well added to 60 μL compound for a multiplicity of infection (MOI) of 0.002 (Long, A2), 0.003 (B1), or 0.004 (CH18537). Virus only (no drug) and cells only (no virus, no drug) controls were included on each plate. The compound-virus mix was incubated for 1 h at 37° C. and 5% CO2. After 1 h, medium was removed from HEp-2 cells by aspiration and wells washed once with 100 μL/well 1×PBS pH 7.4 (Fisher cat #MT21040CM). The compound-virus mix (100 μL/well) was added to the cells and incubated for 1 h at 37° C. and 5% CO2 prior to addition of 100 μL/well of DMEM with 2% HI-FBS, 1× P/S, 2 mM L-Gln (200 μL final vol) and incubation at 37° C. and 5% CO2. On day 6 post infection, supernatant was aspirated and cells fixed with 100 μL/well ice-cold 80% acetone in 1×PBS for 20 min at 4° C. The acetone was aspirated and plates air-dried for 20 min at room temperature. The plates were washed 3× with 200 μL/well 1×PBS, 0.05% Tween-20 (PBST) and blocked with 200 μL/well 5% non-fat dry milk (Fisher cat #50-195-952) in PBST for 1 h with shaking (500 rpm) on an orbital plate shaker. The blocking solution was discarded and cells incubated with 100 μL/well mouse anti-F protein antibody (MilliporeSigma cat #MAB8599) diluted 1:2,000 in diluent (blocking solution diluted 1:1 in 1×PBS pH 7.4) for 2 h with shaking. Plates were washed 5× with 300 μL/well PBST and incubated with 100 μL/well HRP-conjugated goat anti-mouse IgG antibody (SouthernBiotech cat #1030-05) diluted 1:1,000 in diluent for 1 h with shaking. Plates were washed 5× with 300 μL/well PBST and incubated with 100 μL/well TMB substrate (Fisher cat #BDB555214) for ˜5 min. The reaction was stopped with 100 μL/well 1N H2SO4. Absorbance was read at 450 nm with an EnSpire multimode plate reader (PerkinElmer). The mean A450 for the cells only control was subtracted from all A450 values, and the percent virus neutralisation calculated for each compound concentration, relative to the virus only control.

RSV A2 strain = experiment: RSV microneutralization assay, RSV A2 strain; details: human respiratory syncytial virus; MOI 0.002, HEp-2 cells, day 6
Experimental: as §1, with “HEp-2 cells (ATCC #CCL-23) were seeded at 5E4/well/200 μL in DMEM (Fisher cat #11965118) supplemented with 10% heat-inactivated (HI) fetal bovine serum (HI-FBS; Fisher cat #10-082-147), 1× penicillin-streptomycin (P/S, 100 μg/mL; Fisher cat #MT30002C), and 1× L-glutamine (L-Gln, 2 mM; Fisher cat #25030-164) in 96-well tissue culture treated plates (Fisher cat #08-772-17) and incubated overnight at 37° C. and 5% CO2. Duplicate” for “Duplicate”

RSV Long = experiment: RSV plaque reduction assay, RSV Long; details: human respiratory syncytial virus, HEP-2 cells, 6 days, read-out: EC50 RSV Long MOI 0.0001
Experimental: (§2) An RSV plaque reduction assay was performed according to the following protocol. On Day 1, HEP-2 cells were seeded in 24-well plates at 5×10E5 cells/well/500 ul. On Day 2, once the cells are at 100% confluency, the cells were infected at a viral dilution of approximately 30 plaques per well in DMEM+2% FBS infection buffer and treated with compound. The medium was aspirated and cells were infected with 90 ul of viral dilution per well. Then, cells were treated with 10 ul of 10× compound resulting in a final concentration of between 1 nM-10 uM of the compound. The cells were incubated for 2 h at room temperature, rocking every 15 minutes. After 2 h, the inoculum/compound mixture is removed. 450 ul of overlay media (1 part Avicel 2.5%; 1 part DMEM+2% FBS) was added to the well and the cells were treated with 50 ul of 10× compound resulting in a final concentration of 1 nM-10 uM of the compound. The cells were incubated for 6 days at 37 deg C.
(§3) For staining and quantification: The infected cell plates were fixed with 100% methanol for 10 to 30 minutes. The plates were washed three times with 5% milk/PBS, 1 mL/well. A primary antibody, goat anti-RSV polyclonal antibody (Chemicon Cat #AB1128), diluted in 5% milk/PBS at 1:1000 was put onto each well. […] The plates were rinsed 3 times with deionized water, air-dried and the number of plaques was counted.

RSV B1 = experiment: RSV plaque reduction assay, RSV B1; details: human respiratory syncytial virus, HEP-2 cells, 6 days, read-out: EC50 RSV B1 MOI 0.0001
Experimental: as §2, §3

Compound `C#CCOCCOCCOCCOCCOCCCCn1c(CN2C(=O)C3(CCN(C(=O)OC(C)(C)C)CC3)c3ccncc32)nc2cc(Cl)ccc21` [Int-42] has an EC50 (RSV Long strain) of 0.22 nM, an EC50 (RSV A2 strain) of 0.88 nM and an EC50 (RSV Long) of 17 nM. The EC50 (RSV B1) was 13 nM.
